Laboratory results published in patent US5747544A, “Method of using pure 3R-3'R stereoisomer of zeaxanthin to treat or prevent retinal degeneration in humans” (priority 1995, dated 1998).

Experiments:
retina = settings: in vivo; cited from earlier work
macular degeneration = settings: general anti-oxidants; cited from earlier work
physchem = settings: dry powder
Source text: After roughly six months of storage in a relatively unprotected state (usually under normal refrigeration with moderately frequent removal; without containing any antioxidants, and without taking any precautions to prevent contact by atmospheric oxygen), a sample of the zeaxanthin preparation was sent for stereoisomeric analysis to Prof.

chickens = settings: cited from earlier work
[1] = system: animals such as birds or fish; experiment: Feeding of F. multivorum cell paste to animals such as birds or fish; format: in vivo; settings: oral, cell paste of F. multivorum cells
Source text: Although this option has not yet been fully evaluated, it is possible that the Flavobacterium multivorum cells themselves, in intact form and possibly even in a viable state, may be suitable for direct ingestion by humans. A substantial number of human foods (including cheese, yogurt, beer, etc.) contain viable or killed-but-intact microbial cells, and there is no known pathogenicity associated with the F. multivorum cells isolated by Applied Food Biotechnology, Inc. They were isolated from a relatively cold artesian waterway, and since they are adapted to living in cold water, they cannot survive or reproduce well at temperatures inside the human body. […] When fed directly in the form of a cell paste to animals such as birds or fish, these cells appear to be well-suited as delivery vehicles for zeaxanthin.

[2] = di Mascio et al 1989; among known carotenoids; cited from earlier work

CC1=C(/C=C/C(C)=C/C=C/C(C)=C/C=C/C=C(C)/C=C/C=C(C)/C=C/C2=C(C)C(=O)CCC2(C)C)C(C)(C)CCC1=O [Canthaxanthin]
retinal toxicity (retina): has been shown to cause retinal maculopathy

CC1=C(/C=C/C(C)=C/C=C/C(C)=C/CO)C(C)(C)CCC1 [Retinol (Vit. A), Retinol]
benefit in the retina against macular degeneration (macular degeneration): very limited

CC1=C(/C=C/C(C)=C/C=C/C(C)=C/C=C/C=C(C)/C=C/C=C(C)/C=C/C2=C(C)C[C@@H](O)CC2(C)C)C(C)(C)C[C@H](O)C1 [Zeaxanthin, 3,3'-dihydroxy-β-β-carotene]
remaining at 4380 h (physchem): 92% | coloration of chickens (chickens; Flavobacter cells (ATCC 21081, 21588) with their zeaxanthin fed, U.S. Pat. No. 3,891,504): caused suitable coloration | coloring potency relative to lutein (chickens; per-weight basis, chicken skin and egg yolks): 2-3 times | effectiveness in imparting color to animal flesh or chicken yolks relative to lutein (chickens; per-weight basis): several times more effective | absorption and tissue deposition of zeaxanthin [1]: absorbed into the bloodstream and deposited into various tissues at expected and appropriate tissue locations

Cc1c(C)c2c(c(C)c1O)CCC(C)(CCCC(C)CCCC(C)CCCC(C)C)O2 (stereo not drawn) [alpha-Tocopherol]
benefit in the retina against macular degeneration (macular degeneration): very limited

CC(C)=CCC/C(C)=C/C=C/C(C)=C/C=C/C(C)=C/C=C/C=C(C)/C=C/C=C(C)/C=C/C=C(\C)CCC=C(C)C [lycopene]
singlet oxygen quenching [2]: best singlet oxygen quencher of all known carotenoids

CC1=C(/C=C/C(C)=C/C=C/C(C)=C/C=C/C=C(C)/C=C/C=C(C)/C=C/C2=C(C)CCCC2(C)C)C(C)(C)CCC1 [β-Carotene, β-carotene]
benefit in the retina against macular degeneration (macular degeneration): very limited
